# Tests used:
# [1] = test system: Probable mesothelioma (pleural effusion); assay: MiCK assay, drug-induced apoptosis, Table 3 tumor A2; format: cell-based, human; conditions: Table 3 tumor A2: Probable mesothelioma (pleural effusion); 48 hours with drug
# Method: (§1) Data were obtained optically using Mie light-scattering.
# When the optimal cell concentration is reached, put the cells in the plate and incubate overnight in the incubating chamber of the incubator (37° C.).
# [2] = test system: NSCLC, bilateral well-differentiated adenocarcinoma (site 1A); assay: MiCK assay, drug-induced apoptosis, Table 3 tumor B1; format: cell-based, human; conditions: Table 3 tumor B1: NSCLC, bilateral well-differentiated adenocarcinoma (site 1A); 48 hours with drug
# Excerpt: as §1
# (§2) Do a test well. […] Look at the well under the inverted microscope. […] Repeat until optimal cell concentration is found. Plate the cells into the wells.
# [3] = test system: Lung adenocarcinoma (pleural effusion); assay: MiCK assay, drug-induced apoptosis, Table 4 tumor B1; format: cell-based, human; conditions: Table 4 tumor B1: Lung adenocarcinoma (pleural effusion); 48 hours with drug
# Excerpt: as §1
# (§3) Patients: Three patients were included in this study. […] Patient A was diagnosed with pancreatic islet cell cancer; sample 1 was collected from lymph node and sample 2 was collected from the primary tumor. Patient B was diagnosed with lung cancer NSCLC adenocarcinoma; sample 1 was collected from pleural effusion and sample 2 was collected from solid tumor. […] Ages of the patients ranged from 51-79 years old with an average age of 65 years. One patient was […] and two were female.
# [4] = test system: Lung adenocarcinoma (solid tumor); assay: MiCK assay, drug-induced apoptosis, Table 4 tumor B2; format: cell-based, human; conditions: Table 4 tumor B2: Lung adenocarcinoma (solid tumor); 48 hours with drug
# Excerpt: as §1, §3
# [5] = test system: Pancreatic islet cell cancer (lymph node); assay: MiCK assay, drug-induced apoptosis, Table 4 tumor A1; conditions: Table 4 tumor A1: Pancreatic islet cell cancer (lymph node); 48 hours with drug
# Method: (§4) After overnight incubation, chemotherapy drugs were added to the wells of the 96-well plate in 5 μL aliquots or to the wells of a 384-well plate in 2.5 μL aliquots using an automated pipettor. The number of drugs or drug combinations and the number of concentrations tested depended on the number of viable malignant cells that were isolated from the tumor specimen. The drug concentrations, determined by molarity, were those indicated by the manufacturer as the desired blood level concentration plus or minus one serial dilution if enough cells were available.
# (§5) Following drug addition, the plate was incubated for 30 min. at 37° C. in a 5% carbon dioxide humidified atmosphere incubator. Each well was then overlayed with sterile mineral oil, and the plate was placed into the incubator chamber of a microplate spectrophotometric reader. The optical density at 600 nanometers was read and recorded every 5 minutes over a period of 48 hours.
# (§6) Patients: Three patients were included in this study. Two tumor samples from different tumor sites were collected from each patient. Both samples from each patient were collected on the same day.
# [6] = test system: Lung small cell carcinoma (site A); assay: MiCK assay, drug-induced apoptosis, Table 4 tumor C1; conditions: Table 4 tumor C1: Lung small cell carcinoma (site A); 48 hours with drug
# Method: as §4, §5, §6
# [7] = test system: Lung adenocarcinoma (site B); assay: MiCK assay, drug-induced apoptosis, Table 4 tumor C2; conditions: Table 4 tumor C2: Lung adenocarcinoma (site B); 48 hours with drug
# Method: as §4
# (§7) Following drug addition, the plate was incubated for 30 min. at 37° C. in a 5% carbon dioxide humidified atmosphere incubator. Each well was then overlayed with sterile mineral oil, and the plate was placed into the incubator chamber of a microplate spectrophotometric reader. The optical density at 600 nanometers was read and recorded every 5 minutes over a period of 48 hours. Optical density increases, which correlates with apoptosis, were converted to kinetic units (KU) of apoptosis by a proprietary software ProApo with a formula described in the Kravtsov reference incorporated by reference (i.e. Kravtsov V. et al. “Use of the Microculture Kinetic Assay of apoptosis to determine chemosensitivities of leukemias.” Blood 1998; 92:968-980).
# (§8) Purified tumor cells were cultured for 48 hours with individual drugs, and drug-induced apoptosis was measured using the MiCK assay as described in Example 1. Data were obtained optically using Mie light-scattering.
# [8] = test system: NSCLC, bilateral well-differentiated adenocarcinoma (site 1B); assay: MiCK assay, drug-induced apoptosis, Table 3 tumor B2; format: cell-based, human; conditions: Table 3 tumor B2: NSCLC, bilateral well-differentiated adenocarcinoma (site 1B); 48 hours with drug
# Excerpt: as §1, §2
# [9] = test system: NSCLC, multi-focal, recurrent adenocarcinoma (site A); assay: MiCK assay, drug-induced apoptosis, Table 3 tumor C1; format: cell-based, human; conditions: Table 3 tumor C1: NSCLC, multi-focal, recurrent adenocarcinoma (site A); 48 hours with drug
# Excerpt: as §1, §2
# [10] = test system: NSCLC, multi-focal, recurrent adenocarcinoma (site B); assay: MiCK assay, drug-induced apoptosis, Table 3 tumor C2; format: cell-based, human; conditions: Table 3 tumor C2: NSCLC, multi-focal, recurrent adenocarcinoma (site B); 48 hours with drug
# Excerpt: as §1, §2
# [11] = test system: NSCLC, multi-focal, recurrent adenocarcinoma (right lung); assay: MiCK assay, drug-induced apoptosis, Table 3 tumor D1; format: cell-based, human; conditions: Table 3 tumor D1: NSCLC, multi-focal, recurrent adenocarcinoma (right lung); 48 hours with drug
# Excerpt: as §1, §2
# [12] = test system: NSCLC, multi-focal, recurrent adenocarcinoma (lymph node); assay: MiCK assay, drug-induced apoptosis, Table 3 tumor D2; format: cell-based, human; conditions: Table 3 tumor D2: NSCLC, multi-focal, recurrent adenocarcinoma (lymph node); 48 hours with drug
# Excerpt: as §1, §2
# [13] = test system: NSCLC, multi-focal adenocarcinoma (site A); assay: MiCK assay, drug-induced apoptosis, Table 3 tumor E1; format: cell-based, human; conditions: Table 3 tumor E1: NSCLC, multi-focal adenocarcinoma (site A); 48 hours with drug
# Excerpt: as §1, §2
# [14] = test system: NSCLC, multi-focal adenocarcinoma (site B); assay: MiCK assay, drug-induced apoptosis, Table 3 tumor E2; format: cell-based, human; conditions: Table 3 tumor E2: NSCLC, multi-focal adenocarcinoma (site B); 48 hours with drug
# Excerpt: as §1, §2
# [15] = test system: Pancreatic islet cell cancer (primary tumor); assay: MiCK assay, drug-induced apoptosis, Table 4 tumor A2; conditions: 48 hours with drug
# Method: as §4, §7, §8
smiles,measurement,setting,value
CN(Cc1cnc2nc(N)nc(N)c2n1)c1ccc(C(=O)N[C@@H](CCC(=O)O)C(=O)O)cc1 [Methotrexate],kinetic units (KU) of apoptosis,[1],0.50 KU
same,kinetic units (KU) of apoptosis,[2],1.00 KU
same,kinetic units (KU) of apoptosis,[3],1.40 KU
same,kinetic units (KU) of apoptosis,[4],1.30 KU
same,kinetic units (KU) of apoptosis,[5],0.66 KU
same,kinetic units (KU) of apoptosis,[6],1.30 KU
same,kinetic units (KU) of apoptosis,[7],0.60 KU
O=C1[O][Pt]2([NH][C@@H]3CCCC[C@H]3[NH]2)[O]C1=O [Oxaliplatin],kinetic units (KU) of apoptosis,[3],3.00 KU
same,kinetic units (KU) of apoptosis,[4],3.10 KU
same,kinetic units (KU) of apoptosis,[5],1.08 KU
same,kinetic units (KU) of apoptosis,[6],4.40 KU
same,kinetic units (KU) of apoptosis,[7],2.50 KU
CCC1=C[C@@H]2CN(C1)Cc1c([nH]c3ccccc13)[C@@](C(=O)OC)(c1cc3c(cc1OC)N(C)[C@H]1[C@@](O)(C(=O)OC)[C@H](OC(C)=O)[C@]4(CC)C=CCN5CC[C@]31[C@@H]54)C2 [Vinorelbine],kinetic units (KU) of apoptosis,[1],2.10 KU
same,kinetic units (KU) of apoptosis,[2],1.20 KU
same,kinetic units (KU) of apoptosis,[8],1.70 KU
same,kinetic units (KU) of apoptosis,[9],0.20 KU
same,kinetic units (KU) of apoptosis,[10],0.00 KU
same,kinetic units (KU) of apoptosis,[11],0.40 KU
same,kinetic units (KU) of apoptosis,[12],1.00 KU
same,kinetic units (KU) of apoptosis,[13],0.40 KU
same,kinetic units (KU) of apoptosis,[14],0.00 KU
same,kinetic units (KU) of apoptosis,[3],3.90 KU
same,kinetic units (KU) of apoptosis,[4],2.70 KU
same,kinetic units (KU) of apoptosis,[5],1.18 KU
same,kinetic units (KU) of apoptosis,[6],3.50 KU
same,kinetic units (KU) of apoptosis,[7],2.50 KU
Nc1ccn([C@@H]2O[C@H](CO)[C@@H](O)C2(F)F)c(=O)n1 [Gemcitabine],kinetic units (KU) of apoptosis,[1],0.70 KU
same,kinetic units (KU) of apoptosis,[2],1.20 KU
same,kinetic units (KU) of apoptosis,[8],1.10 KU
same,kinetic units (KU) of apoptosis,[9],0.00 KU
same,kinetic units (KU) of apoptosis,[10],0.70 KU
same,kinetic units (KU) of apoptosis,[11],0.10 KU
same,kinetic units (KU) of apoptosis,[12],0.90 KU
same,kinetic units (KU) of apoptosis,[13],0.30 KU
same,kinetic units (KU) of apoptosis,[14],0.50 KU
same,kinetic units (KU) of apoptosis,[3],1.10 KU
same,kinetic units (KU) of apoptosis,[4],3.20 KU
same,kinetic units (KU) of apoptosis,[5],1.08 KU
same,kinetic units (KU) of apoptosis,[6],2.20 KU
same,kinetic units (KU) of apoptosis,[7],1.30 KU
COc1cc([C@@H]2c3cc4c(cc3[C@@H](O[C@@H]3O[C@@H]5CO[C@@H](C)O[C@H]5[C@H](O)[C@H]3O)[C@H]3COC(=O)[C@H]23)OCO4)cc(OC)c1O [Etoposide],kinetic units (KU) of apoptosis,[1],1.20 KU
same,kinetic units (KU) of apoptosis,[2],1.10 KU
same,kinetic units (KU) of apoptosis,[8],1.20 KU
same,kinetic units (KU) of apoptosis,[9],0.80 KU
same,kinetic units (KU) of apoptosis,[11],1.60 KU
same,kinetic units (KU) of apoptosis,[12],0.90 KU
same,kinetic units (KU) of apoptosis,[13],0.40 KU
same,kinetic units (KU) of apoptosis,[3],2.30 KU
same,kinetic units (KU) of apoptosis,[5],1.08 KU
same,kinetic units (KU) of apoptosis,[15],0.00 KU
same,kinetic units (KU) of apoptosis,[6],4.60 KU
CC[C@]1(O)C[C@H]2CN(CCc3c([nH]c4ccccc34)[C@@](C(=O)OC)(c3cc4c(cc3OC)N(C=O)[C@H]3[C@@](O)(C(=O)OC)[C@H](OC(C)=O)[C@]5(CC)C=CCN6CC[C@]43[C@@H]65)C2)C1 [Vincristine],kinetic units (KU) of apoptosis,[1],2.80 KU
same,kinetic units (KU) of apoptosis,[2],1.30 KU
same,kinetic units (KU) of apoptosis,[8],1.50 KU
same,kinetic units (KU) of apoptosis,[9],0.00 KU
same,kinetic units (KU) of apoptosis,[10],0.40 KU
same,kinetic units (KU) of apoptosis,[11],0.40 KU
same,kinetic units (KU) of apoptosis,[12],0.90 KU
same,kinetic units (KU) of apoptosis,[13],0.10 KU
same,kinetic units (KU) of apoptosis,[14],0.10 KU
same,kinetic units (KU) of apoptosis,[3],0.90 KU
same,kinetic units (KU) of apoptosis,[5],0.82 KU
same,kinetic units (KU) of apoptosis,[6],1.00 KU
same,kinetic units (KU) of apoptosis,[7],1.60 KU
CO[C@H]1C[C@@H]2CC[C@@H](C)[C@@](O)(O2)C(=O)C(=O)N2CCCC[C@H]2C(=O)O[C@H]([C@H](C)C[C@@H]2CC[C@@H](OCCO)[C@H](OC)C2)CC(=O)[C@H](C)/C=C(\C)[C@@H](O)[C@@H](OC)C(=O)[C@H](C)C[C@H](C)/C=C/C=C/C=C/1C [Everolimus],kinetic units (KU) of apoptosis,[5],1.31 KU
same,kinetic units (KU) of apoptosis,[15],0.00 KU
same,kinetic units (KU) of apoptosis,[6],0.50 KU
same,kinetic units (KU) of apoptosis,[7],1.00 KU
COc1cccc2c1C(=O)c1c(O)c3c(c(O)c1C2=O)C[C@@](O)(C(=O)CO)C[C@@H]3O[C@H]1C[C@H](N)[C@@H](O)[C@H](C)O1 [Epirubicin],kinetic units (KU) of apoptosis,[1],3.80 KU
same,kinetic units (KU) of apoptosis,[2],0.90 KU
same,kinetic units (KU) of apoptosis,[8],1.20 KU
same,kinetic units (KU) of apoptosis,[11],1.40 KU
same,kinetic units (KU) of apoptosis,[3],2.70 KU
same,kinetic units (KU) of apoptosis,[4],3.50 KU
same,kinetic units (KU) of apoptosis,[5],1.61 KU
same,kinetic units (KU) of apoptosis,[6],8.70 KU
same,kinetic units (KU) of apoptosis,[7],3.20 KU
CCN(CC)CCNC(=O)c1c(C)[nH]c(/C=C2\C(=O)Nc3ccc(F)cc32)c1C [Sunitinib],kinetic units (KU) of apoptosis,[3],0.70 KU
same,kinetic units (KU) of apoptosis,[5],1.93 KU
same,kinetic units (KU) of apoptosis,[15],2.06 KU
CC[C@@]1(O)C(=O)OCc2c1cc1n(c2=O)Cc2cc3c(CN(C)C)c(O)ccc3nc2-1 [Topotecan],kinetic units (KU) of apoptosis,[1],3.60 KU
same,kinetic units (KU) of apoptosis,[2],1.70 KU
same,kinetic units (KU) of apoptosis,[8],0.80 KU
same,kinetic units (KU) of apoptosis,[9],0.50 KU
same,kinetic units (KU) of apoptosis,[10],0.00 KU
same,kinetic units (KU) of apoptosis,[11],0.40 KU
same,kinetic units (KU) of apoptosis,[12],1.00 KU
same,kinetic units (KU) of apoptosis,[13],0.70 KU
same,kinetic units (KU) of apoptosis,[14],0.30 KU
same,kinetic units (KU) of apoptosis,[3],1.30 KU
same,kinetic units (KU) of apoptosis,[6],9.30 KU
same,kinetic units (KU) of apoptosis,[7],4.10 KU
CCc1c2c(nc3ccc(OC(=O)N4CCC(N5CCCCC5)CC4)cc13)-c1cc3c(c(=O)n1C2)COC(=O)[C@]3(O)CC [Irinotecan],kinetic units (KU) of apoptosis,[1],1.30 KU
same,kinetic units (KU) of apoptosis,[2],1.60 KU
same,kinetic units (KU) of apoptosis,[8],1.50 KU
same,kinetic units (KU) of apoptosis,[9],0.40 KU
same,kinetic units (KU) of apoptosis,[10],0.30 KU
same,kinetic units (KU) of apoptosis,[11],0.40 KU
same,kinetic units (KU) of apoptosis,[12],0.90 KU
same,kinetic units (KU) of apoptosis,[13],0.60 KU
same,kinetic units (KU) of apoptosis,[14],0.10 KU
same,kinetic units (KU) of apoptosis,[3],0.60 KU
same,kinetic units (KU) of apoptosis,[5],1.50 KU
same,kinetic units (KU) of apoptosis,[15],1.16 KU
same,kinetic units (KU) of apoptosis,[6],1.40 KU
same,kinetic units (KU) of apoptosis,[7],2.10 KU

# Source: patent US20230184744A1, “INTERTUMORAL HOMOGENEITY DETERMINED BY MiCK ASSAY” (Pierian Biosciences, LLC, priority 2014, published 2023)
